Data: paper PMC11732441, “Biased constitutive signaling of the G protein-coupled receptor GPR35 suppresses gut barrier permeability [drawing 1]” (The Journal of Biological Chemistry, 2024)

How the values were obtained:
[1] = molecular target: T1, hGPR35a (Homo sapiens, UniProt Q9HC97); assay: BRET G protein dissociation (TRUPATH-like) in Flp-In T-REx […] cells expressing FLAG-hGPR35a; format: cell-based
T1 construct: gene GPR35; FLAG-hGPR35a (N-terminal FLAG tag); with Gα13/Gβ3/Gγ9

[2] = molecular target: T1, hGPR35a; assay: BRET G protein re-association (inverse agonism) in HEK293 cells; effect in HEPG2 cells lost on GPR35 knock-out; format: cell-based

T1 sequence (Q9HC97 whole entry): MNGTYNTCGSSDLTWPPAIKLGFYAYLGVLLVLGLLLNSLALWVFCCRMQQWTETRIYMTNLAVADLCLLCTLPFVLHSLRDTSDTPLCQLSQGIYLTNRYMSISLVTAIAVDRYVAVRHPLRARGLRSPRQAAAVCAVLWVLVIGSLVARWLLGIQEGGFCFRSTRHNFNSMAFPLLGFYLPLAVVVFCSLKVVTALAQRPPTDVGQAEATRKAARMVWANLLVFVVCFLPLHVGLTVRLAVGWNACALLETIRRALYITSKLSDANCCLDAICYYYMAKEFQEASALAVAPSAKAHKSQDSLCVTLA
T1 sequence (Q14344 whole entry partner): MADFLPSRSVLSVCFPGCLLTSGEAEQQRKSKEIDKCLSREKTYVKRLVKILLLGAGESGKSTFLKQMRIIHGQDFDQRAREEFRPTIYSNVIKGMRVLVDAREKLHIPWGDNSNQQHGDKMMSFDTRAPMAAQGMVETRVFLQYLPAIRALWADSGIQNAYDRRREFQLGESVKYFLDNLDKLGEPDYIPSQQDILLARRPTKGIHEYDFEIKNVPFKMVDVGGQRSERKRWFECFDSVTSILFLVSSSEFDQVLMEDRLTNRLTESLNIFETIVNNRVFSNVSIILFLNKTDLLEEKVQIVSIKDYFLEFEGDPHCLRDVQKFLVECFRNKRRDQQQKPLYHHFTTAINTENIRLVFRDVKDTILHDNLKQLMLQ
T1 sequence (P16520 whole entry partner): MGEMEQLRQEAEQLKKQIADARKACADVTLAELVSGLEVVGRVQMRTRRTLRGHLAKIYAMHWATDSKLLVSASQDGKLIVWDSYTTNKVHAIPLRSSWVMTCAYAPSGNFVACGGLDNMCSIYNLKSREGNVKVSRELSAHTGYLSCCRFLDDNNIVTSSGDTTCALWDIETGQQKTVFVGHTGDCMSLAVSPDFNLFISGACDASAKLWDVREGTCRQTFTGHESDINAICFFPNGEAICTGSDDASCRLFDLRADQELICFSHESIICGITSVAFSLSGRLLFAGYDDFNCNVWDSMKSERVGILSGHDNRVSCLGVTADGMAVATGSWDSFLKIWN
T1 sequence (O14610 1-66 partner): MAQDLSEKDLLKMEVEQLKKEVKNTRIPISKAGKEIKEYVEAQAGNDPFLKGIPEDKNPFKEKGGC

EC50 [1] [nM] | Structure (SMILES) | BRET G protein re-association (inverse agonism) in HEK293 cells; effect in HEPG2 [2]
1.48 | N#Cc1cc(NC(=O)C(=O)O)c(Cl)c(NC(=O)C(=O)O)c1 [lodoxamide] | 
 | COC(=O)c1cnn(-c2ccc(F)cc2F)c1C=NNC(=S)NC(C)(C)C [CID-2745687] | the BRET signal induced by CID-2745687 increased with receptor plasmid amount
